Experimental data from patent US20060251714A1, “Pharmaceutical formulations of amyloid inhibiting compounds” (priority 2005, published 2006).
Read-outs that look alike come from different tables or passages of the source.

Assays:
[1] = dog, in vivo
Protocol: Furthermore, the non-hygroscopic nature of the acid form makes it desirable as active pharmaceutical ingredient. To further protect against any possible gastrointestinal intolerance that could result from the acid form, the tablets are enteric-coated and a modified-release agent is added to control any rapid release of the drug in the stomach and the intestine, respectively.

[2] = Example 11: additional tests, crossing of the blood/brain barrier; type: in vivo, human; conditions: treated AD patients
[3] = Example 9 Part II: food effect, single oral 100 mg 3-APS in elderly subjects, plasma pharmacokinetics; type: in vivo; conditions: both sexes, human, single oral 100 mg (Table 5 tablet), elderly male and female subjects; for AUC(0-inf) / Cmax / AUC(0-t): po, 100 mg; for AUC(0-inf): mean, only subjects with estimable elimination rate constant; for Cmax / AUC(0-t): n = 8, mean; for AUC(0-t): read-out: AUC0-Tlast
Protocol: (§1) In the following examples and elsewhere herein, terms are as defined below. The pharmacokinetic parameters were derived by non-compartmental analysis using WinNonlin® (Pharsight Corporation, Mountain View, Calif.) or SAS® for Windows® (SAS Institute Inc., Cary, N.C.).
Following single oral dosing of 100 mg 3-APS (modified-release coated formulation modified-release enteric-coated tablet as described in Table 5 above) to elderly (55 years or older) male and female subjects under fasted and fed (high fat) conditions, maximum plasma concentrations of 3-APS are attained at 5 and 10.5 h post-dose under fasted and fed conditions, respectively (Table 12A below and FIG. 5 showing the Mean Plasma Concentration-Time Profiles of 3-APS under Fasted and Fed Conditions following Single Oral Administration of 100 mg to Elderly Male and Female Subjects).

[4] = Example 10: 3-APS concentration in cerebrospinal fluid of AD patients; type: in vivo; conditions: human
Text: (§2) A multicenter, randomized, double-blind, placebo-controlled and parallel designed study is made with 3-APS in the formulation described in Table 5 above in patients suffering from mild to moderate Alzheimer's Disease (AD). An objective of this study is to assess the safety and tolerability of 3-APS and to assess its pharmacokinetics in AD patients. A total of fifty-eight (58) mild to moderate AD patients (MMSE scores=13 to 26) are enrolled from 6 centers in the United States. Patients are randomized to receive in 1:1:1:1 ratio of NC-758-1 at 50, 100, 150 mg BID or placebo BID for 12 weeks. Study medication is administered orally (tablet). For doses at multiples of 50 mg, multiple 50 mg tables are administered. Each patient is evaluated on 6 occasions at screening, baseline [Week 0], weeks 2, 4, 8 and 12. Blood samples are collected from each patient prior to dosing and at specified time points through 12 h post-dose after the first dose (Week 0) and the last dose (Week 12). Blood samples are also collected prior to the first dose of the day during Week 2, 4 and 8 visits.
(Patients having a CSF level below the lower limit of quantitation of the assay are considered as zero.) CSF concentrations of 3-APS on Day 2 of Week 12 after twice daily oral administration for 12 weeks are as follows: […]

[5] = Example 8 Part I: multiple rising oral doses of NC-758 in healthy young male and elderly subjects, plasma pharmacokinetics; type: in vivo, human; conditions: fasted; for AUC∞: mean, only subjects with estimable elimination rate constant
Protocol: as §1
The pharmacokinetic profile of multiple rising oral doses of 3-APS free acid (NC-758 of Table 3 above) in healthy male young subjects (18-45 years) and healthy male and female elderly (≧55 years) subjects is assessed. For doses at multiples of 100 mg, multiple 100 mg tables are administered. […] Part I is a randomized, double-blind, placebo-controlled study to assess the pharmacokinetic profile of 2 multiple rising oral doses of NC-758 in healthy young (18-45 years) male subjects. […] In Part I, 3-APS is administered as a single dose on Days 1 and 12 and on Days 2-11, twice daily at 12 hour intervals. Blood samples are collected through 24 h after the first dose on Day 1, before each morning dose on Days 2 to 11, and through 48 h after the final dose on Day 12. For Part II, blood samples are collected through 36 h. Plasma concentrations of 3-APS are determined using a validated LC-MS/MS method.

[6] = Example 10: 12-week placebo-controlled study in mild to moderate Alzheimer's Disease patients, plasma pharmacokinetics; type: in vivo, human; conditions: AD patients; for AUC∞: mean, only patients with estimable elimination rate constant
Text: as §1
AUCss—the area under the plasma concentrations versus time curve during a dosing interval at steady state.
as §2

[7] = NC-758 100 mg BID, Day 12 (repeated), young (18-45 years) male subjects, n = 6, mean
[8] = NC-758 200 mg BID, Day 1, elderly (≧55 years) male and female subjects, n = 6, mean
[9] = NC-758 200 mg BID, Day 1, young (18-45 years) male subjects, n = 6, mean
[10] = NC-758 200 mg BID, Day 12 (repeated), elderly (≧55 years) male and female subjects, n = 6, mean
[11] = NC-758 200 mg BID, Day 12 (repeated), young (18-45 years) male subjects, n = 5, mean
[12] = 50 mg BID (Table 5 tablet), Week 0 (single dose), n = 15, mean
[13] = 100 mg BID (Table 5 tablet), Week 0 (single dose), n = 16, mean
[14] = 150 mg BID (Table 5 tablet), Week 0 (single dose), n = 14, mean

NCCCS(=O)(=O)O [3-APS, 3-amino-1-propanesulfonic acid]
tolerability [1]: better tolerated than the sodium salt form
crossing of the blood/brain barrier [2]: crossed the blood/brain barrier
AUC(0-inf) ([3]; Fasting Arm): 3290 ng·h/mL
Cmax ([3]; Fasting Arm): 931 ng/mL
AUC(0-t) ([3]; Fasting Arm): 3220 ng·h/mL
AUC(0-inf) ([3]; Fed Arm (high fat)): 2830 ng·h/mL
Cmax ([3]; Fed Arm (high fat)): 671 ng/mL
AUC(0-t) ([3]; Fed Arm (high fat)): 3400 ng·h/mL
Tmax ([3]; Fed Arm (high fat), n = 8, median): 10.5 h
concentration at 5 h ([4]; dose 50 mg twice daily oral for 12 weeks, Day 2 of Week 12, read-out: CSF concentration with mean ± standard deviation): 1.07 ± 1.8 ng/mL
concentration at 5 h ([4]; dose 100 mg twice daily oral for 12 weeks, Day 2 of Week 12, read-out: CSF concentration with mean ± standard deviation): 4.36 ± 2.66 ng/mL
concentration at 5 h ([4]; dose 150 mg twice daily oral for 12 weeks, Day 2 of Week 12, read-out: CSF concentration with mean ± standard deviation): 3.87 ± 2.74 ng/mL
concentration at 5 h ([4]; oral, 5 hours post-dose on Week 12, range of means across dose groups, levels below lower limit of quantitation considered as zero, read-out: mean concentrations of 3-APS in the cerebrospinal fluid (CSF)): 2.61 to 7.33 ng/mL
AUC∞ ([5]; NC-758 100 mg BID, Day 1, young (18-45 years) male subjects): 1017 ng·h/mL
Cmax ([5]; NC-758 100 mg BID, Day 1, young (18-45 years) male subjects, n = 6, mean): 282 ng/mL
AUC0-12h [5, 7]: 1434 ng·h/mL
Cmax [5, 7]: 256 ng/mL
AUC∞ ([5]; NC-758 200 mg BID, Day 1, elderly (≧55 years) male and female subjects): 5503 ng·h/mL
AUC0-12h [5, 8]: 5020 ng·h/mL
Cmax [5, 8]: 897 ng/mL
AUC∞ ([5]; NC-758 200 mg BID, Day 1, young (18-45 years) male subjects): 3206 ng·h/mL
AUC0-12h [5, 9]: 2865 ng·h/mL
Cmax [5, 9]: 517 ng/mL
AUC0-12h [5, 10]: 6287 ng·h/mL
Cmax [5, 10]: 880 ng/mL
AUC0-12h [5, 11]: 4152 ng·h/mL
Cmax [5, 11]: 581 ng/mL
AUC∞ ([6]; 50 mg BID (Table 5 tablet), Week 0 (single dose)): 1396 ng·h/mL
AUC(0-t) [6, 12]: 1321 ng·h/mL
Cmax [6, 12]: 310 ng/mL
Tmax ([6]; 50 mg BID (Table 5 tablet), Week 12 (repeated), n = 15, median): 3 h
AUC∞ ([6]; 100 mg BID (Table 5 tablet), Week 0 (single dose)): 2569 ng·h/mL
AUC(0-t) [6, 13]: 2467 ng·h/mL
Cmax [6, 13]: 618 ng/mL
Tmax ([6]; 100 mg BID (Table 5 tablet), Week 0 (single dose), n = 16, median): 4.5 h
Tmax ([6]; 100 mg BID (Table 5 tablet), Week 12 (repeated), n = 14, median): 3.5 h
AUC∞ ([6]; 150 mg BID (Table 5 tablet), Week 0 (single dose)): 3418 ng·h/mL
AUC(0-t) [6, 14]: 2792 ng·h/mL
Cmax [6, 14]: 624 ng/mL
Tmax ([6]; 150 mg BID (Table 5 tablet), Week 12 (repeated), n = 11, median): 3 h
